We go through ten molecules from US7074888B1, “Mimotopes and anti-mimotopes of human platelet glycoprotein Ib/IX” (The Research Foundation of State University of New York, priority 1995, dated 2006).

Ends that are not written are not given here.

One experiment has as its system formalin-fixed platelets. Type of experiment: cell-based, human. As to conditions: for inhibition of ristocetin-induced aggregation (extent, in words): 1 U/mL purified vWF, 0.9 mg/mL ristocetin. On the procedure:
(§1) Citrated human platelet-rich plasma (PRP) was prepared by standard methods (Miller et al. 1983). For study of C-34 neutralization by mimotope peptide, 350 μL of PRP containing 150,000 platelets/μL was incubated for 10 min at 22° C. with phosphate-buffered saline (PBS), 20 μg/mL C-34 mab, or 20 μg/mL C-34 that had previously been incubated for 30 min at 22° C. with varying concentrations of peptides. The PRP was then brought to 37° C. and stirred at 1200 rpm in a Chrono-Log lumi-aggregometer (Chrono-Log Corporation, Havertown, Pa.). Aggregation was initiated by the addition of 1 mg/mL ristocetin (Helena Laboratories, Beaumont, Tex.). For screening of bacteriophage clones displaying potential anti-mimotope peptides, 150 μl of PEG/NaCl precipitated phage was incubated with 250 μl of citrated PRP for one hour at 22° C., transferred to the aggregometer, following which ristocetin was added at a final concentration of 0.8 mg/ml.
Further studies were undertaken with chemically synthesized peptide having SEQ ID NO:94: […]. This decapeptide was able to inhibit ristocetin-induced aggregation fully, with an IC50 occurring between 200–400 μg/mL (FIG. 9). […] In order to approximate more closely the native structure, peptides with an (Arg→Lys) substitution at position 7 were then studied. […] Whereas the […] Finally, both the wild-type GPIb alpha 228–237 peptide (SEQ ID NO:108) containing Gly at residue 233 and the PT-vWD variant with Val replacing Gly at this position (SEQ ID NO:107) were synthesized. […] Lyophilized peptides were reconstituted in PBS, pH 6.0 and 150 μL of varying dilutions incubated for 2–4 hr at 22° C. with 250 μL of formalin-fixed platelets ([…]), prior to aggregometry in which the addition of 1 U/mL purified vWF was followed by the addition of 0.9 mg/mL ristocetin.

In a further experiment the test system is mab SZ-2. As to the kind of experiment: ELISA: phage binding to biotinylated SZ-2 inhibits binding of SZ-2 to immobilized glycocalicin. As to conditions: phage clone. On the procedure:
At this point, an ELISA assay can be used to evaluate individual clones, if the number of clones is high. In brief, phage having undergone two PEG precipitations, and subsequently adjusted for titer, can be incubated overnight with biotinylated mab, following which the mab-phage mixture can be added to wells of microtiter plates that have been previously coated with formalin-fixed platelets (or other suitable immobilized target recognized by the mab). Following a series of washing steps, avidin-peroxidase is added, the wells washed again, chromogenic substrate added, and the wells eventually read on an ELISA plate reader. The relative decrease in strength of signal in this assay provides guidance as to the most promising clones for further study. Consensus peptides identified in this manner can be chemically synthesized and characterized with respect to ability to bind original antibody. Peptides showing high binding affinity for the antibody can then be used as immunogens in mice and/or rabbits. […]

The next experiment relates to mab C-34. The experiment is described as follows: Neutralization of mab C-34 inhibition of ristocetin-induced aggregation in citrated platelet-rich plasma by mimotope peptide. Type of experiment: cell-based, human. On the procedure:
as §1
A peptide including the consensus sequence (SEQ ID NO: 38) was chemically synthesized (Genosys Biotechnologies, The Woodlands, Tex.). […] A modification of this peptide with a biotin attached to the amino-terminal alanine (N-hydroxysuccinimide hexanoic acid long chain spacer arm biotinylation) was also synthesized. One mg of the chemically synthesized biotinylated peptide was dissolved in one ml of water containing 20 μl of DMSO. […] Accordingly, approximately 10 μg of C-34 was incubated at 22° C. for 30 minutes with varying concentrations of test or control peptide, following which the mixture was added to PRP in a final volume of approximately 0.5 ml for an additional 10 minutes at 22° C. […] A similar pattern of C-34 antibody neutralization was observed when the non-biotinylated form of the peptide (having SEQ ID NO:38) was used, with half-maximal neutralization at approximately 3.0 μM.

The subject of another experiment is platelets. The experiment is described as follows: Effect of mimotope peptide by itself on platelet aggregation and on ADP-induced aggregation. In kind it is cell-based, human.
The test system of experiment [1] is platelets in citrated PRP. The experiment is described as follows: Functional screening of candidate anti-mimotope bacteriophage clones, ristocetin-induced aggregation in citrated PRP. Type of experiment: cell-based, human. As to conditions: 150 μL phage + 250 μL citrated PRP, 1 hr 22° C., 0.8 mg/mL ristocetin (FIG. 8). How it is done:
FIG. 8 illustrates the functional screening of candidate anti-mimotope bacteriophage clones. Following incubation of 150 μL of the indicated bacteriophage clones with 250 μL of citrated PRP for 1 hr at 22° C., aggregation was initiated by the addition of 0.8 mg/mL ristocetin under stirring conditions at 37° C.;
as §1
The mimotope decapeptide itself was then used as a probe to search for “anti-mimotope” peptides. […]

Experiment [2] concerns the target human platelet glycoprotein Ib/IX complex (human, UniProt P07359 17-652; P13224 26-206; P14770 17-177). The experiment is described as follows: cell-based or functional assay.

human platelet glycoprotein Ib/IX complex, sequence (P07359 17-652, chain 1 of 3): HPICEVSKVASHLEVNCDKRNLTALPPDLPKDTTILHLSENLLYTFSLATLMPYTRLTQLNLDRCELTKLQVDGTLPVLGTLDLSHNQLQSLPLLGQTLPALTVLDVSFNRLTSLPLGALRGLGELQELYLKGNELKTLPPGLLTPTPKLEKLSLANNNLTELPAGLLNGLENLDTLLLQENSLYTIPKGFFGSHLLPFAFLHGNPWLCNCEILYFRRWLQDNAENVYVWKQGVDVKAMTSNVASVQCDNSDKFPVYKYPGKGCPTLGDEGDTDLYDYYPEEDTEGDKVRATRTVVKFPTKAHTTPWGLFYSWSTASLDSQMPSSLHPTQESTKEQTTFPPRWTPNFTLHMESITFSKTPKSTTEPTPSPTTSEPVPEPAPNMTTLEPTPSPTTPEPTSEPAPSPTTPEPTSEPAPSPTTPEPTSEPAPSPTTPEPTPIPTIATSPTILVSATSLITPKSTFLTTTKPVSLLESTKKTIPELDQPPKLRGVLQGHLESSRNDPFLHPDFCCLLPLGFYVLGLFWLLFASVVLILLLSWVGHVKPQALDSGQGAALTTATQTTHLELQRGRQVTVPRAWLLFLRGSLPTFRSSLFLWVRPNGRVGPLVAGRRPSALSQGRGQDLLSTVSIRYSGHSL
human platelet glycoprotein Ib/IX complex, sequence (P13224 26-206, chain 2 of 3): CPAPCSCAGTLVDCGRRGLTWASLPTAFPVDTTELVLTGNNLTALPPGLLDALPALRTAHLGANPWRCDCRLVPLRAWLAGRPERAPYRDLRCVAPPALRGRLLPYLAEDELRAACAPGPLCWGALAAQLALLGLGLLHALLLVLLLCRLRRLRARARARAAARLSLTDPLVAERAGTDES
human platelet glycoprotein Ib/IX complex, sequence (P14770 17-177, chain 3 of 3): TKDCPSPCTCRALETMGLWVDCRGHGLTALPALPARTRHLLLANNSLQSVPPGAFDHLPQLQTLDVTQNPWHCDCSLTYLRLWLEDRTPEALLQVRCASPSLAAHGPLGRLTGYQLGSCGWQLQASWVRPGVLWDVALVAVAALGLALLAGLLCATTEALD

For the molecule “SEQ ID NO:108: wild-type GPIb alpha 228–237 peptide containing Gly at residue 233 (YVWKQGVDVK)”, the “inhibition of ristocetin-induced aggregation (extent, in words)” value (“inhibition … (extent, in words)” below) in the experiment with formalin-fixed platelets (formalin-fixed platelets) is “virtually without inhibitory activity”.

On to RHVAWWKQVV [SEQ ID NO:105], for which the “inhibition … (extent, in words)” value in the experiment on formalin-fixed platelets (formalin-fixed platelets) was “retained potent inhibitory activity”.

Take RHVAWWKQGV [SEQ ID NO:106]: the “inhibition … (extent, in words)” value in the experiment on formalin-fixed platelets (formalin-fixed platelets) is “unable to exert more than slight inhibition, except at the highest concentrations tested”.

Consider “SEQ ID NO:104: RHVAWWRQGV decapeptide with a (Gly→Val) substitution at position 9, corresponding to the mutation observed in PT-vWD (RHVAWWRQVV)”, for which the “inhibition of ristocetin-induced aggregation” value with formalin-fixed platelets (by 715 μg/mL peptide, formalin-fixed platelets) is recorded as “nearly full inhibition”.

On to YVWKQVVDVK [SEQ ID NO:107], for which, in the experiment on formalin-fixed platelets, the “IC50 for inhibition of ristocetin-induced aggregation” value is listed as “approximately 400 μg/mL”. In the experiment on formalin-fixed platelets (formalin-fixed platelets), the “inhibition … (extent, in words)” value was “fully inhibiting”.

Take WHWRSSWKSG [SEQ ID NO:83]: the “neutralization of SZ-2 binding to immobilized glycocalicin” value with mab SZ-2 is “fully neutralizing”.

With AWNWRYREYV [SEQ ID NO:1], the “neutralization of C-34 inhibition of ristocetin-induced aggregation” value is listed as “continued inhibition” with mab C-34 (0.14 μM peptide, 20 μg/ml mab C-34 (FIG. 3)); “partial neutralization” in the experiment with mab C-34 (0.27 μM peptide, 20 μg/ml mab C-34 (FIG. 4)); “partial neutralization” with mab C-34 (0.55 μM peptide, 20 μg/ml mab C-34 (FIG. 5)); “partial neutralization” in the experiment on mab C-34 (1.1 μM peptide, 20 μg/ml mab C-34 (FIG. 6)); “complete neutralization” with mab C-34 (2.3 μM peptide, 20 μg/ml mab C-34 (FIG. 7)). Also, in the experiment with platelets (non-specific effects), the “influence on ADP-induced aggregation” value was “no influence”. Also, the “induction of platelet aggregation by the peptide by itself” value in the experiment on platelets (peptide alone, PRP) is “did not induce platelet aggregation”.

Consider WNWRYREYV [SEQ ID NO:38], for which the EC50 in the experiment with mab C-34 (20 μg/mL C-34, citrated PRP, 1 mg/mL ristocetin, read-out: half-maximal neutralization of the C-34) is ~3 µM.

With RHVAWWRQGV [SEQ ID NO:94, RHVAWWRQGV], the “inhibitory activity of bacteriophage clone in functional platelet assay” value in experiment [1] is reported as “inhibitory activity above background level”. In addition, in the experiment on formalin-fixed platelets, the “IC50 for inhibition of ristocetin-induced aggregation” value lay within 200 to 400 µg/mL. The “inhibition … (extent, in words)” value in the experiment with formalin-fixed platelets (formalin-fixed platelets) is “fully”.

For RHVAWWRQGV [chemically synthesized peptide having SEQ ID NO:94], in experiment [2], the “IC50 of inhibition of ristocetin-induced aggregation of formalin-fixed platelets with vWF” value lay in the range of 200 to 400 µg/mL.
